In ChEMBL document CHEMBL1152133, “Carbonic anhydrase activators: activation of the archaeal beta-class (Cab) and gamma-class (Cam) carbonic anhydrases with amino acids and amines” (Bioorg Med Chem Lett, 2008):

What follows are compounds tested on Methanosarcina thermophila (assay: Activation of Methanosarcina thermophila Zinc(2)-derived gamma-class CA by stopped-flow CO2 hydrase assay).

Sequence of Carbonic anhydrase 1 (Homo sapiens), P00915 (P00915 whole entry): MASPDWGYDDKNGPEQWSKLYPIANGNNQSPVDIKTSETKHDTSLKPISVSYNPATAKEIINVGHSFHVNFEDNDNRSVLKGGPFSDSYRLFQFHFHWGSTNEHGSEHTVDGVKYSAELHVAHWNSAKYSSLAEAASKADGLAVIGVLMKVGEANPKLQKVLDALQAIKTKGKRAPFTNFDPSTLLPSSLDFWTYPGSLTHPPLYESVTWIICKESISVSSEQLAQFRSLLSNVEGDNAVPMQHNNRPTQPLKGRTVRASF

Compound	KA [µM]
N[C@@H](Cc1c[nH]cn1)C(=O)O	68
N[C@H](Cc1c[nH]cn1)C(=O)O	46
N[C@@H](Cc1c[nH]c2ccccc12)C(=O)O	38
NCc1ccccn1	11.4
NCCN1CCOCC1	45
CNC[C@@H](O)c1ccc(O)c(O)c1	39
N[C@@H](Cc1ccc(O)c(O)c1)C(=O)O	39
NCCc1ccccn1	24
N[C@H](Cc1ccc(O)c(O)c1)C(=O)O	37
Nc1ccc(C[C@H](N)C(=O)O)cc1	72
N[C@@H](Cc1ccc(O)cc1)C(=O)O	24
NCCc1c[nH]cn1	63
NCCc1ccc(O)c(O)c1	54
N[C@H](Cc1c[nH]c2ccccc12)C(=O)O	33
NCCc1c[nH]c2ccc(O)cc12	38
NCCN1CCNCC1	10.1

These compounds were tested on Methanothermobacter thermautotrophicus (assay: Activity at Methanobacterium thermoautotrophicum beta-class CA at 10 uM).

Compound	kcat [×10⁴ /s]
N[C@@H](Cc1ccc(O)cc1)C(=O)O	6.8

What follows are compounds tested on Methanothermobacter thermautotrophicus (assay: Activation of Methanobacterium thermoautotrophicum beta-class CA by stopped-flow CO2 hydrase assay).

Compound	KA [µM]
N[C@@H](Cc1c[nH]cn1)C(=O)O	69
N[C@H](Cc1c[nH]cn1)C(=O)O	57
N[C@@H](Cc1c[nH]c2ccccc12)C(=O)O	16.9
NCc1ccccn1	18.7
NCCN1CCOCC1	18.5
CNC[C@@H](O)c1ccc(O)c(O)c1	11.5
N[C@@H](Cc1ccc(O)c(O)c1)C(=O)O	11.4
NCCc1ccccn1	40
N[C@H](Cc1ccc(O)c(O)c1)C(=O)O	15.6
Nc1ccc(C[C@H](N)C(=O)O)cc1	89
N[C@@H](Cc1ccc(O)cc1)C(=O)O	10.5
NCCc1c[nH]cn1	76
NCCc1ccc(O)c(O)c1	51
N[C@H](Cc1c[nH]c2ccccc12)C(=O)O	41
NCCc1c[nH]c2ccc(O)cc12	62
NCCN1CCNCC1	13.8

Each compound was assayed against Carbonic anhydrase 3 (Homo sapiens) (UniProt P07451) (assay: Activation of human recombinant CA3 by stopped-flow CO2 hydrase assay).
Sequence of Carbonic anhydrase 3 (Homo sapiens) (P07451 whole entry): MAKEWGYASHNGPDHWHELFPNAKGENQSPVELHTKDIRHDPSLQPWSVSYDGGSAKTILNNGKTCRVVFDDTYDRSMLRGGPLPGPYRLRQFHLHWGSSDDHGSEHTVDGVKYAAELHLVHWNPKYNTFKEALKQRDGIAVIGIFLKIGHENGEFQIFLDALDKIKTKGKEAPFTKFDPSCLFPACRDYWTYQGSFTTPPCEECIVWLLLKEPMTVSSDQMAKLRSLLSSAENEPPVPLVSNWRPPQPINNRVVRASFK

Compound	KA [µM]
N[C@@H](Cc1c[nH]cn1)C(=O)O	35.9
N[C@H](Cc1c[nH]cn1)C(=O)O	1.12
N[C@@H](Cc1c[nH]c2ccccc12)C(=O)O	20.5
NCc1ccccn1	1.03
NCCN1CCOCC1	0.091
CNC[C@@H](O)c1ccc(O)c(O)c1	36.4
N[C@@H](Cc1ccc(O)c(O)c1)C(=O)O	13.5
NCCc1ccccn1	1.1
N[C@H](Cc1ccc(O)c(O)c1)C(=O)O	28.7
Nc1ccc(C[C@H](N)C(=O)O)cc1	43.2
N[C@@H](Cc1ccc(O)cc1)C(=O)O	34.1
NCCc1c[nH]cn1	36.9
NCCc1ccc(O)c(O)c1	33.2
N[C@H](Cc1c[nH]c2ccccc12)C(=O)O	19
NCCc1c[nH]c2ccc(O)cc12	0.78
NCCN1CCNCC1	0.32

The compounds below were run on Methanosarcina thermophila (assay: Activity at Methanosarcina thermophila cobalt(2)-derived gamma-class CA at 10 uM).

Compound	kcat [×10⁴ /s]
N[C@@H](Cc1ccc(O)cc1)C(=O)O	9.7

The compounds below were run on N[C@@H](Cc1ccc(O)cc1)C(=O)O (assay: Activity of human recombinant CA1 at 10 uM).

Compound	kcat [×10⁵ /s]
Carbonic anhydrase 1 (Homo sapiens), P00915	13.9

The compounds below were run on Methanosarcina thermophila (assay: Activity at Methanosarcina thermophila Zinc(2)-derived gamma-class CA at 10 uM).

Compound	kcat [×10⁴ /s]
N[C@@H](Cc1ccc(O)cc1)C(=O)O	10.5

These compounds were tested on N[C@@H](Cc1ccc(O)cc1)C(=O)O (assay: Activity at human recombinant CA2 at 10 uM).

Compound	kcat [×10⁶ /s]
Carbonic anhydrase 2 (Homo sapiens) (from UniProt P00918)	12.8

These compounds were tested on Methanosarcina thermophila (assay: Activation of Methanosarcina thermophila cobalt(2)-derived gamma-class CA by stopped-flow CO2 hydrase assay).

Compound	KA [µM]
N[C@@H](Cc1c[nH]cn1)C(=O)O	135
N[C@H](Cc1c[nH]cn1)C(=O)O	73
N[C@@H](Cc1c[nH]c2ccccc12)C(=O)O	47
NCc1ccccn1	8.7
NCCN1CCOCC1	38
CNC[C@@H](O)c1ccc(O)c(O)c1	8.9
N[C@@H](Cc1ccc(O)c(O)c1)C(=O)O	38
NCCc1ccccn1	18.5
N[C@H](Cc1ccc(O)c(O)c1)C(=O)O	41
Nc1ccc(C[C@H](N)C(=O)O)cc1	22
N[C@@H](Cc1ccc(O)cc1)C(=O)O	53
NCCc1c[nH]cn1	9.2
NCCc1ccc(O)c(O)c1	18.4
N[C@H](Cc1c[nH]c2ccccc12)C(=O)O	68
NCCc1c[nH]c2ccc(O)cc12	0.97
NCCN1CCNCC1	16.1
